In patent publication US8986652B2, “Method of preparing [123I]iodooctyl fenbufen amide and application thereof” (National Tsing Hua University, priority 2012, dated 2015):
Read-outs that look alike come from different tables or passages of the source. Values belong to the molecule of their own block, whether it stands above or below them.

Assays:
[1] = molecular target: T1, COX-1 (Ovis aries, UniProt P05979); experiment: Colorimetric COX inhibitor screening assay (competitive inhibition of substrate transfer, CIST), COX-1; type: biochemical, ovine
T1 construct: purchased Cayman Chemical Ltd 760111
T1 sequence (P05979 25-600): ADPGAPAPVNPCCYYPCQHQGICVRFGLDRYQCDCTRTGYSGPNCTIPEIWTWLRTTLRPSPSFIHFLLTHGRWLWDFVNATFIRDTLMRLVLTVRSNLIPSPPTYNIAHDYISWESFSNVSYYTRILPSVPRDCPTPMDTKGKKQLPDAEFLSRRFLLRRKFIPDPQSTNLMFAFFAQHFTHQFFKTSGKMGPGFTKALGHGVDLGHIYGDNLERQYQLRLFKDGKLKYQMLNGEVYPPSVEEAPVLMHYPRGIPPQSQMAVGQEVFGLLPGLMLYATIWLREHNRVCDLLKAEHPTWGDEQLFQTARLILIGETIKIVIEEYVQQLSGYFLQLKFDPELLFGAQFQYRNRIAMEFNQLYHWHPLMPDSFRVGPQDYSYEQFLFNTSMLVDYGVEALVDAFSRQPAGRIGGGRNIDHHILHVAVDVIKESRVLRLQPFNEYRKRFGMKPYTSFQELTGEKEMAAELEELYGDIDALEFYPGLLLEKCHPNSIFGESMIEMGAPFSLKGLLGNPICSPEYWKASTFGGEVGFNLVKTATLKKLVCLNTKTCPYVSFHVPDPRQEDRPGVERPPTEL

[2] = system: rat liver tumor lesion; settings: cited from earlier work
[3] = molecular target: T1, COX-1; experiment: Radioligand binding assay by gel filtration HPLC, COX-1; parameters: species or system ovine; settings: for Binding yield (bound conjugate, accumulated radioactivity fraction) with COX-1: 25° C., 15 min incubation, peak at 5 min / (5 min + 13.6 min)
Protocol: (§1) The compound of formula 1 was purified by a set of HPLC consisting of the components of a Waters 510 pump, a linear UVIS detector (254 nm) in series with a Berthhold γ-flow detector, on a ZORBAX SIL column (250 mm×9.4 mm, 5 μm) at 3 mL/min with MeOH/CHCl3=1/99 as the mobile phase. Quality analysis of The compound of formula 1 was performed on the same HPLC setup as described above. The settings for radioactive ligand binding assay included a gel filtration column of TSKgel G3000PWx1 7.5×300 (mm) with a particle size of 10 μm which was purchased from Tosoh Bioscience LLC. The corresponding eluting conditions including PBS buffer and flow rate of 1 mL/min were employed throughout the experiment. The identity of The compound of formula 1 was confirmed with the compound of formula 2 on HPLC chromatogram after coinjection. The peak area of the UV absorbance at 254 nm that should correspond to the compound of formula 2 was calculated by interpolating to the standard curve relating mass to UV absorbance. Only a specific activity below 36 GBq/μmol can be measured accurately. Radioactive measurements were performed by a Capintec R15C dose calibrator.
(§2) The binding experiment was carried out in an eppendorf (0.2 mL) and stood for 10 min for equilibrium. An aliquot (10 μL) was drawn from the commercial stock solution (200 μL). Additional 30 μL of tris buffer (0.1 M, pH=8.0) was added. The solution (40 μL) of COX-1 or COX-2 each was added into a tris buffer (50 μL) together with the addition of a solution of the radiotracer the compound of formula 1 in EtOH with concentration ranging from 66 μCi/10 μL to 70 μCi/10 μL. The whole mixture (100 μL) was incubated at 25° C. for 15 min followed by submission to purification using HPLC. PBS buffer (0.1 M, pH=7.3) was employed as the eluent and the flow rate was set to be 1 mL/min.
(§3) The assay was based on that the retention time of the bound complex between radiolabeled ligand and enzyme was different from that of the unbound ligand in HPLC. […]

[4] = molecular target: T2, COX-2 (Ovis aries, UniProt P79208); experiment: Radioligand binding assay by gel filtration HPLC, COX-2; parameters: species or system ovine; settings: for Binding yield (bound conjugate, accumulated radioactivity fraction) with COX-2: 25° C., 15 min incubation, peak at 5 min / (5 min + 13.6 min)
T2 construct: purchased Cayman Chemical Ltd 760111
T2 sequence (P79208 17-603): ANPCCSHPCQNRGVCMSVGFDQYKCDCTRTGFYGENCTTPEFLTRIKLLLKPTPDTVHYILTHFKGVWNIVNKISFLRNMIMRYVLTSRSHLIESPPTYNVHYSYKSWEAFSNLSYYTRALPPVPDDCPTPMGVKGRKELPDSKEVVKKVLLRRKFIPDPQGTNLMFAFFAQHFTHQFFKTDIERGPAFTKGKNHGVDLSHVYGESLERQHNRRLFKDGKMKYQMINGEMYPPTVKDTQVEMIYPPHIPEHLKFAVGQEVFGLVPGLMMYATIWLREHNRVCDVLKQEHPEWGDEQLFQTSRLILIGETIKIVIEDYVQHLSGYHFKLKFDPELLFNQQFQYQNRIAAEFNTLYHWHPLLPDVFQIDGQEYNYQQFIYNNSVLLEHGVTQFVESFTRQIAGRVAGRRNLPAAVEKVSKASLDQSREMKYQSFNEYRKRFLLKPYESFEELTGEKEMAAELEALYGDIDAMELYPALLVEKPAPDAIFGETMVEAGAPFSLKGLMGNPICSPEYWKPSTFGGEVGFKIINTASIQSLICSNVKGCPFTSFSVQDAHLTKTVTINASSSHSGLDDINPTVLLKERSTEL
Protocol: as §1, §2, §3

[5] = system: thioacetamide-induced cholangiocarcinoma (CCA) rat; experiment: SPECT/CT imaging in normal rat and thioacetamide-induced cholangiocarcinoma (CCA) rat; type: in vivo; settings: tail vein
Protocol: All in vivo experiments were performed in compliance with the Taiwan National Health and Medical Research Council (NHMRC) Code of Practice for the care and use of animals for scientific purposes. Male-, Sprague-Dawley (SD) rats ([…]) were obtained from the Animal Research Center (Chang-Gung Memorial Hospital, Taiwan). Rats were housed under constant environmental conditions and were allowed free access to food and water throughout the experimental period. In vivo studies were performed in a thioacetamide-induced cholangiocarcinoma (CCA) rat (37th week post administration) along with a normal rat as a control.
The rats were anaesthetized via inhalant isoflurane (Forthane, Abott) in 200 mL/min oxygen during the imaging study. […]
The compound of formula 1 (0.76 mCi/1 mL) was administered by the CCA rat via tail vein injection to obtain a summation of one-hour Single Photon Emission Computer Tomography (SPECT) imaging data (FIG. 4(A)). The normal rat was injected with the residual radioactivity of the compound of formula 1 (1.39 mCi/1 mL) (FIG. 4 (B)). All in vivo experiments were performed in compliance with the NHMRC Taiwan Code of Practice for the care and use of animals for scientific purposes, and the raw data from the image further analyzed by Preclinical Multi-Modality Data Analysis software (PMOD Technologies Ltd, Zurich, Switzerland).

[6] = molecular target: T2, COX-2; experiment: Colorimetric COX inhibitor screening assay (competitive inhibition of substrate transfer, CIST), COX-2; type: biochemical; settings: colorimetric COX (ovine) kit; read-out: IC50 value COX-2, this assay
[7] = molecular target: COX-1 (Homo sapiens, UniProt P23219); settings: read-out: IC50 value COX-1, lit. data; literature data; cited from earlier work
[8] = molecular target: T3, COX-2 (Homo sapiens, UniProt P35354); settings: read-out: IC50 value COX-2, lit. data; literature data; cited from earlier work
T3 sequence (P35354 18-604): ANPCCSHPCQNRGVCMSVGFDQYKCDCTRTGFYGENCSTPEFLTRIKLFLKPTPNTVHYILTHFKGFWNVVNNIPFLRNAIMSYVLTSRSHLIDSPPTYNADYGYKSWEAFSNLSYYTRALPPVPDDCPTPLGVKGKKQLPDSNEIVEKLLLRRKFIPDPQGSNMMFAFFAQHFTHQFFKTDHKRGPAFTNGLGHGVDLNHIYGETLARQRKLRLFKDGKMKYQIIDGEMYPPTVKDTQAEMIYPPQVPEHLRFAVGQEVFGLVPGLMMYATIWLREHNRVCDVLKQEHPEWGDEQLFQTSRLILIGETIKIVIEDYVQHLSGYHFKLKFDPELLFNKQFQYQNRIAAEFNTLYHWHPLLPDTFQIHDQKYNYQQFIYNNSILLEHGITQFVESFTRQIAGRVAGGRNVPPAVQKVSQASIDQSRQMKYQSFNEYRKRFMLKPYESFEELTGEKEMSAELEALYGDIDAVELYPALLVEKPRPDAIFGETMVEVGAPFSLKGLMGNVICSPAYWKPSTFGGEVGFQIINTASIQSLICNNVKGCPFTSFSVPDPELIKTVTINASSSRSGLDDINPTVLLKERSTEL

[9] = system: NO; settings: antioxidant (e.g. NO) assay; cited from earlier work
[10] = colorimetric COX (ovine) kit, read-out: IC50 value COX-1, this assay

Chain of COX-1 (Homo sapiens, UniProt P23219) (P23219 24-599): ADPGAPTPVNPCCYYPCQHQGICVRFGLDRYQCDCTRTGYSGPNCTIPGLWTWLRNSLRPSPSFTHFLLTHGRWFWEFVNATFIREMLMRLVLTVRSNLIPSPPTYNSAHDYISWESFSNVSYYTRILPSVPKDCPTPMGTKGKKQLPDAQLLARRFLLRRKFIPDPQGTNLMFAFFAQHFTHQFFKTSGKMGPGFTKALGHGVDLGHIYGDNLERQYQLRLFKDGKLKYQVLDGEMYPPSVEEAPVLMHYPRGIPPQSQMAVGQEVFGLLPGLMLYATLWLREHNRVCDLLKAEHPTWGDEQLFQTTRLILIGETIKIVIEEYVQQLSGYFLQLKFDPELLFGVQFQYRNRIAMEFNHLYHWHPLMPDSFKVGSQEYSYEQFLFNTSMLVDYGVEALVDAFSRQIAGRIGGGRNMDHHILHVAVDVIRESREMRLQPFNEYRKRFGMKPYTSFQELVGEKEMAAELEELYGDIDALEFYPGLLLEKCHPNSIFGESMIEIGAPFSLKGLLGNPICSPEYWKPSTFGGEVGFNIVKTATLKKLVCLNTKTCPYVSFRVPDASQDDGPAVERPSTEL

Binding yield (bound conjugate, accumulated radioactivity fraction) with COX-1 [3]: 56%
Intact (unbound) form remained, COX-1 binding experiment ([3]; peak at 13.6 min): 44%
Binding yield (bound conjugate, accumulated radioactivity fraction) with COX-2 [4]: 79%
Intact (unbound) form remained, COX-2 binding experiment ([4]; peak at 13.6 min): 21%
Molecule: CCCCCCCCNC(=O)CCC(=O)c1ccc(-c2ccc([123I])cc2)cc1 [compound of formula 1, 4-(4′-[^123I]iodobiphenyl-4-yl)-N-octyl-4-oxobutanamide]
In-vivo distribution of radioactivity, SPECT ([5]; CCA tumor rat, 0.76 mCi/1 mL): a heterogeneous radioactivity accumulation was addressed in the liver
In-vivo distribution of radioactivity, SPECT ([5]; normal rat, 1.39 mCi/1 mL, 30 mins post administration): a homogeneous pattern, which was localized mainly in the liver and partly in the heart

IC50 [1, 10]: > 10 µM
IC50 [6]: > 10 µM
Binding yield (bound conjugate, accumulated radioactivity fraction) with COX-1 [3]: 56%
Binding yield (bound conjugate, accumulated radioactivity fraction) with COX-2 [4]: 76%
melting point: 181 to 182 °C
Molecule: CCCCCCCCNC(=O)CCC(=O)c1ccc(-c2ccc(I)cc2)cc1 [compound of formula 2, 4-(4′-iodobiphenyl-4-yl)-n-octyl-4-oxobutanamide]

IC50 [1, 10]: > 10 µM
IC50 [6]: > 10 µM
Molecule: O=C(O)CCC(=O)c1ccc(-c2ccccc2)cc1 [fenbufen]
IC50 [7]: 3.9 µM
IC50 [8]: 8.1 µM

The remaining lines, values behind:

Molecule: Oc1ccc(C=Cc2cc(O)cc(O)c2)cc1 [Resveratrol]
IC50 [1]: 3.9 µM

Molecule: C=C(CC)C(=O)c1ccc(OCC(=O)NCCCC[18F])c(Cl)c1Cl [[^18F]FBuEA, [^18F]-N-(4-fluorobutyl)ethacrynic amide]
Image of tumor lesion [2]: only shows the image of cold spot

Molecule: O=c1ccn([C@@H]2O[C@H](CO)[C@@H](O)[C@H]2O)c(=O)[nH]1 [uridine]
IC50 [1, 10]: > 10 µM
IC50 [6]: > 10 µM

Molecule: Octyl fenbufen amide [OFA]
Anti inflammatory effect [9]: marginal
